In patent US9321764B2, “Dihydro-pyrrolopyridinone inhibitors” (AbbVie Inc., priority 2013, dated 2016):
Like-named read-outs stand apart in the source and are kept apart here.

Tests used:
BRD4 (BDII_E352-M457) = molecular target: T1, BRD4 (BDII_E352-M457) (Homo sapiens, UniProt O60885); experiment: TR-FRET bromodomain binding assay, second bromodomain of BRD4; conditions: His-tagged BD2, 30 nM Alexa647 probe; TR-FRET protocol A-E given per row
T1 construct: proliferation; Protocol; made in house
How it was run: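 His-tagged BRD4 BD2 ([…]) competed against an Alexa647-labelled BET-inhibitor probe in TR-FRET. Buffer was 20 mM sodium phosphate pH 6.0, 50 mM NaCl, 1 mM EDTA, 0.01% Triton X-100, 1 mM DTT, with method D DMSO series of 2.5 mM–800 nM (stock range). IC50 from 4-parameter fit, Ki from probe Kd and concentration.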

BRD4 (BDI_K57-E168) = molecular target: T2, BRD4 (BDI_K57-E168) (Homo sapiens, UniProt O60885); experiment: TR-FRET bromodomain binding assay, first bromodomain of BRD4; conditions: His-tagged BD1, 100 nM Alexa647 probe; TR-FRET protocol A-E given per row
T2 construct: BD1: amino acids K57-E168; made in house
How it was run: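 Ki values come from IC50s (4-parameter logistic) corrected for probe Kd and concentration, normalised to no-compound and 1 μM unlabelled probe controls. Probe displacement by TR-FRET used 8 nM BD1 (K57-E168), 100 nM Alexa647 probe, 1 nM Eu-anti-His, 20 mM phosphate pH 6.0, 2% DMSO, 1 h, room temperature.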

[1] = test system: breast cancer cell line MX-1; experiment: MX-1 cell line proliferation assay; assay type: cell-based; conditions: MX-1 cells, 3-day proliferation assay, Cell Titer Glo, read-out: Cellular proliferation EC50
Procedure: The impact of compounds of the Examples on cancer cell proliferation was determined using the breast cancer cell line MX-1 (ATCC) in a 3-day proliferation assay and the data are reported in Table 1. MX-1 cells were maintained in RPMI 1640 medium (Sigma) supplemented with 10% FBS at 37° C. and an atmosphere of 5% CO2. For compound testing, MX-1 cells were plated in 96-well black bottom plates at a density of 5000 cells/well in 90 μL of culture media and incubated at 37° overnight to allow cell adhesion and spreading. Compound dilution series were prepared in DMSO via a 3-fold serial dilution from 3 mM to 0.1 μM. The DMSO dilution series were then diluted 1:100 in phosphate buffered saline, and 10 μL of the resulted solution were added to the appropriate wells of the MX-1 cell plate. The final compound concentrations in the wells were 3, 1, 0.3, 0.1, 0.03, 0.01, 0.003, 0.001, 0.0003 and 0.0001 μM.
Luminescence readings from the Cell Titer Glo assay were normalized to the DMSO treated cells and analyzed using the GraphPad Prism software with sigmoidal curve fitting to obtain EC50s. The minimum significant ratio (MSR) was determined to evaluate assay reproducibility (Eastwood et al., (2006) J Biomol Screen, 11: 253-261).

Ki (BRD4 (BDII_E352-M457)) | Ki (BRD4 (BDI_K57-E168)) | EC50 ([1]; Homo sapiens, MX1, 72 h) | EC50 [1] | SMILES
43 nM | 26 nM | 161 nM | – | CC(C)S(=O)(=O)Nc1ccc(Oc2ccc(F)cc2F)c(-c2cn(C)c3c(=O)[nH]ccc23)c1 [Example 3, N-[4-(2,4-difluorophenoxy)-3-(1-methyl-7-oxo-6,7-dihydro-1H-pyrrolo[2,3-c]pyridin-3-yl)phenyl]propane-2-sulfonamide]
29 nM | 10 nM | 67 nM | – | CCS(=O)(=O)Nc1ccc(Oc2ccc(Cl)cc2)c(-c2cn(C)c3c(=O)[nH]ccc23)c1 [Example 5, N-[4-(4-chlorophenoxy)-3-(1-methyl-7-oxo-6,7-dihydro-1H-pyrrolo[2,3-c]pyridin-3-yl)phenyl]ethanesulfonamide]
57 nM | 2.8 nM | 36 nM | – | CCS(=O)(=O)Nc1ccc(O[C@H]2CC[C@H](OC)CC2)c(-c2cn(C)c3c(=O)[nH]ccc23)c1 [Example 6, N-{4-[(trans-4-methoxycyclohexyl)oxy]-3-(1-methyl-7-oxo-6,7-dihydro-1H-pyrrolo[2,3-c]pyridin-3-yl)phenyl}ethanesulfonamide]
29 nM | 12 nM | 128 nM | – | CCS(=O)(=O)Nc1ccc(O[C@H]2CC[C@@H](OC)CC2)c(-c2cn(C)c3c(=O)[nH]ccc23)c1 [Example 9, N-{4-[(cis-4-methoxycyclohexyl)oxy]-3-(1-methyl-7-oxo-6,7-dihydro-1H-pyrrolo[2,3-c]pyridin-3-yl)phenyl}ethanesulfonamide]
142 nM | 18 nM | 225 nM | – | CCS(=O)(=O)Nc1ccc(OC2COC2)c(-c2cn(C)c3c(=O)[nH]ccc23)c1 [Example 10, N-[3-(1-methyl-7-oxo-6,7-dihydro-1H-pyrrolo[2,3-c]pyridin-3-yl)-4-(oxetan-3-yloxy)phenyl]ethanesulfonamide]
213 nM | 173 nM | 136 nM | – | Cn1cc(-c2cc(NS(C)(=O)=O)c(Oc3ccc(F)cc3F)cc2Oc2ccc(F)cc2F)c2cc[nH]c(=O)c21 [Example 13, N-[2,4-bis(2,4-difluorophenoxy)-5-(1-methyl-7-oxo-6,7-dihydro-1H-pyrrolo[2,3-c]pyridin-3-yl)phenyl]methanesulfonamide]
47 nM | 109 nM | – | – | COC(=O)/C=C/N(c1ccc(F)cc1)c1ccc(CS(C)(=O)=O)cc1-c1cn(C)c2c(=O)[nH]ccc12 [Example 166, methyl (2E)-3-[(4-fluorophenyl) {2-(1-methyl-7-oxo-6,7-dihydro-1H-pyrrolo[2,3-c]pyridin-3-yl)-4-[(methylsulfonyl)methyl]phenyl}amino]prop-2-enoate]
285 nM | 69.1 nM | – | – | Cn1cc(-c2cc(NCc3c(F)cccc3F)ccc2Oc2ccc(F)cc2F)c2cc[nH]c(=O)c21 [Example 175, 3-{5-[(2,6-difluorobenzyl)amino]-2-(2,4-difluorophenoxy)phenyl}-1-methyl-1,6-dihydro-7H-pyrrolo[2,3-c]pyridin-7-one]
231 nM | 69.9 nM | – | – | Cn1cc(-c2cc(NCc3ccnc4ccccc34)ccc2Oc2ccc(F)cc2F)c2cc[nH]c(=O)c21 [Example 179, 3-{2-(2,4-difluorophenoxy)-5-[(quinolin-4-ylmethyl)amino]phenyl}-1-methyl-1,6-dihydro-7H-pyrrolo[2,3-c]pyridin-7-one]
10.9 nM | 3.18 nM | – | – | CCS(=O)(=O)Nc1ccc(Oc2ccc(F)cc2F)c(-c2cn(C)c3c(=O)[nH]c(C(=O)NCCN4CCCCC4)cc23)c1 [Example 198, 3-{2-(2,4-difluorophenoxy)-5-[(ethylsulfonyl)amino]phenyl}-1-methyl-7-oxo-N-[2-(piperidin-1-yl)ethyl]-6,7-dihydro-1H-pyrrolo[2,3-c]pyridine-5-carboxamide]

Second part, the compound before the results:

SMILES | Ki (BRD4 (BDII_E352-M457)) | Ki (BRD4 (BDI_K57-E168)) | EC50 ([1]; Homo sapiens, MX1, 72 h) | EC50 [1]
CCS(=O)(=O)C(C)c1ccc(Oc2ccc(F)cc2F)c(-c2cn(C)c3c(=O)[nH]ccc23)c1 (single isomer, unassigned) [Example 56] | 18 nM | 13 nM | 36 nM | –
CCS(=O)(=O)C(C)c1ccc(Oc2ccc(F)cc2F)c(-c2cn(C)c3c(=O)[nH]ccc23)c1 (single isomer, unassigned) [Example 57] | 37 nM | 14 nM | – | 66 nM
Cn1cc(-c2ccccc2Oc2ccccc2)c2cc[nH]c(=O)c21 [Example 1, 1-methyl-3-(2-phenoxyphenyl)-1,6-dihydro-7H-pyrrolo[2,3-c]pyridin-7-one] | 313 nM | 85 nM | 584 nM | –
CCS(=O)(=O)Nc1ccc(OC2CCOCC2)c(-c2cn(C)c3c(=O)[nH]ccc23)c1 [Example 7, N-[3-(1-methyl-7-oxo-6,7-dihydro-1H-pyrrolo[2,3-c]pyridin-3-yl)-4-(tetrahydro-2H-pyran-4-yloxy)phenyl]ethanesulfonamide] | 16 nM | 4 nM | 93 nM | –
CCS(=O)(=O)Nc1ccc(OC2CCC(F)(F)CC2)c(-c2cn(C)c3c(=O)[nH]ccc23)c1 [Example 8, N-{4[(4,4-difluorocyclohexyl)oxy]-3-(1-methyl-7-oxo-6,7-dihydro-1H-pyrrolo[2,3-c]pyridin-3-yl)phenyl}ethanesulfonamide] | 6.4 nM | 1.6 nM | 33 nM | –
COc1ccc(Oc2cccc(CNc3ccc(Oc4ccc(F)cc4F)c(-c4cn(C)c5c(=O)[nH]ccc45)c3)c2)cc1 [Example 168, 3-[2-(2,4-difluorophenoxy)-5-{[3-(4-methoxyphenoxy)benzyl]amino}phenyl]-1-methyl-1,6-dihydro-7H-pyrrolo[2,3-c]pyridin-7-one] | 1200 nM | 386 nM | – | –
Cn1cc(-c2cc(NCc3cccc(C#N)c3)ccc2Oc2ccc(F)cc2F)c2cc[nH]c(=O)c21 [Example 172, 3-({[4-(2,4-difluorophenoxy)-3-(1-methyl-7-oxo-6,7-dihydro-1H-pyrrolo[2,3-c]pyridin-3-yl)phenyl]amino}methyl)benzonitrile] | 226 nM | 71 nM | – | –
Cn1cc(-c2cc(NCc3ccc(Oc4ccccc4)cc3)ccc2Oc2ccc(F)cc2F)c2cc[nH]c(=O)c21 [Example 173, 3-{2-(2,4-difluorophenoxy)-5[(4-phenoxybenzyl)amino]phenyl}-1-methyl-1,6-dihydro-7H-pyrrolo[2,3-c]pyridin-7-one] | 781 nM | 214 nM | – | –
Cn1cc(-c2cc(NCCC(C)(C)C)ccc2Oc2ccc(F)cc2F)c2cc[nH]c(=O)c21 [Example 174, 3-{2-(2,4-difluorophenoxy)-5-[(3,3-dimethylbutyl)amino]phenyl}-1-methyl-1,6-dihydro-7H-pyrrolo[2,3-c]pyridin-7-one] | 215 nM | 57.5 nM | – | –
CCS(=O)(=O)Nc1ccc(Oc2ccc(F)cc2F)c(-c2cn(C)c3c(=O)[nH]c(CN4CCOCC4)cc23)c1 [Example 182, N-{4-(2,4-difluorophenoxy)-3-[1-methyl-5-(morpholin-4-ylmethyl)-7-oxo-6,7-dihydro-1H-pyrrolo[2,3-c]pyridin-3-yl]phenyl}ethanesulfonamide] | 99.9 nM | 29.2 nM | – | –
CCS(=O)(=O)Nc1ccc(Oc2ccc(F)cc2F)c(-c2cn(C)c3c(=O)[nH]c(C(=O)N4CCOCC4)cc23)c1 [Example 191, N-{4-(2,4-difluorophenoxy)-3-[1-methyl-5-(morpholin-4-ylcarbonyl)-7-oxo-6,7-dihydro-1H-pyrrolo[2,3-c]pyridin-3-yl]phenyl}ethanesulfonamide] | 54.6 nM | 7.63 nM | – | –
CCS(=O)(=O)Nc1ccc(Oc2ccc(F)cc2F)c(-c2cn(C)c3c(=O)[nH]c(C(=O)N4CCC(O)CC4)cc23)c1 [Example 194, N-[4-(2,4-difluorophenoxy)-3-{5-[(4-hydroxypiperidin-1-yl)carbonyl]-1-methyl-7-oxo-6,7-dihydro-1H-pyrrolo[2,3-c]pyridin-3-yl]phenyl}ethanesulfonamide] | 68.5 nM | 10.5 nM | – | –
CCS(=O)(=O)Nc1ccc(Oc2ccc(F)cc2F)c(-c2cn(C)c3c(=O)[nH]c(C(=O)NCc4ccoc4)cc23)c1 [Example 201, 3-{2-(2,4-difluorophenoxy)-5-[(ethylsulfonyl)amino]phenyl}-N-(furan-3-ylmethyl)-1-methyl-7-oxo-6,7-dihydro-1H-pyrrolo[2,3-c]pyridine-5-carboxamide] | 11.4 nM | 3.47 nM | – | –
